Patent US20250179024A1, “AMYLOID AND ASSOCIATED PATHOLOGY MODULATORS AND METHODS THEREOF” (Jawaharlal Nehru Centre for Advanced Scientific Research, priority 2022, published 2025)

What was measured:
SH-SY5Y cells = test: Imaging of mitochondrial structural changes, Mito-TG; assay type: cell-based; details: Aβ 20 μM, 18 h, Mito-TG staining
Method: The effect of NMIs (M3) on Aβ induced structural damage to mitochondria was assessed and Mito-TG probe was used for imaging mitochondria. SH-SY5Y cells were seeded onto confocal dishes and incubated for 24 h. Then cells were treated with Aβ (20 μM) alone and with M3 (50 μM) and incubated for […]. Followed by PBS washing, and stained with Mito-TG (250 nM) for 20 min. Cells were washed thrice with dPBS and imaged in live cell set up in rhodamine channel using 63× oil immersion using Leica DMi8 fluorescence microscope.
Aβ-associated functional abnormalities induced structural defects in mitochondria. The effect of M3 to prevent structural damage was assessed by staining the cells with Mito-TG, a mitochondrial probe. The cells were treated with Aβ (20 μM) alone and with M3 for 18 h, followed by Mito-TG staining and fluorescence microscopic imaging to visualize the structural changes. The Aβ treatment deformed mitochondria with fragmented morphology in comparison to the long tubular structure of healthy cells (FIG. 14C). […] Collectively, these structural and functional studies of mitochondria confirmed that M3 is a potential modulator of Aβ-induced toxicity to protect mitochondrial damage.

C6 microglial cells = test: Bio-AFM study of microglial activation; assay type: cell-based; details: Aβ 5 μM, compound 10 μM
Method: Microglia activation and its alleviation was studied by Bio-AFM technique combining the indirect immunofluorescence by confocal microscopy and cellular mechanical properties characterization by AFM. C6 microglia was used as model cells and Aβ as pathological stimuli for the study. C6 cells were cultured in glass bottom confocal dishes to attain 70% confluence. The cells were primed to activation by using 500 ng/mL of LPS in low serum media (2.5% FBS). Then microglial cells were treated with 5 μM Aβ42 alone and with NMIs (M3) for 18 h. Then the cells were fixed and probed for Iba1 marker by indirect immunofluorescence, counter stained with Phalloidin rhodamine (200 nM) for actin labeling to visualize the actin distribution and DAPI (1 μM) for labeling the nucleus. The samples were washed thrice using dPBS and subjected to Bio-AFM imaging.
The Bio-AFM studies were performed in Bioscope Resolve AFM integrated with Olympus Fluoview-3000 Confocal laser scanning microscope (Bruker). The original confocal stage was removed and replaced with the Bruker Bio-AFM stage. For the confocal images aspect ratio was fixed to 4:3 with channel size of 640×480 and 3-point calibration was done to obtain proper overlay and pixel scaling was optimized by setting 0.375 μ/pixel. Region of interest was selected in the confocal using 60× oil immersion objective (Olympus plan Apo N) and on selected region AFM probe was landed using MIROVIEW window. Peak Force Quantitative Nanomechanical Mapping (PF-QNM) in Fluid mode was used for imaging the cells wherein this mode works based on Peakforce tapping principle. From this mode, height, log DMT and adhesion force of the samples was recorded. The log DMT was calculated using Derjaguin, Muller, Toropov (DMT) model using the formula given below. Studies were performed using MLCT BIO-F probe made up of non-conductive silicon nitride, coated with reflective Au with spring constant of 0.60 N/m and tip radius of 20 nm. Images were recorded with scanning speed of 0.5 Hz with 512 samples per line. The confocal images were recorded in DAPI, Alex488 and rhodamine channels. AFM data was analyzed using NanoScope analysis software (1.9 version) and confocal images were analyzed using Image J. Ftip=4/3E*√Rd3+Fadh, where Ftip=Force on tip, Fadh=Adhesion force, R=Tip radius and d=Tip sample separation.
C6 microglial cells were used as model and Aβ as stimuli for microglial activation that mimics AD conditions. The C6 cells were primed with LPS (500 ng/mL) for 4 h followed by treatment with Aβ (5 μM) alone and with M3 (10 μM) for 18 h. The cells were stained for Iba1, actin (phalloidin-rhodamine) and nucleus (DAPI), and the samples were subjected to confocal and AFM imaging using integrated Bio-AFM instrument.

Aβ oligomers = target: T1, Aβ oligomers (Homo sapiens, UniProt P05067); test: Dot blot assay of Aβ oligomer inhibition (A11 antibody); assay type: biochemical; details: Aβ 10 μM, NMIs 20 μM, 4° C., 24 h
T1 construct: is a 42 amino acid proteolytic product from the amyloid precursor protein; purchased Invitrogen
T1 sequence (P05067 672-713 limits assumed): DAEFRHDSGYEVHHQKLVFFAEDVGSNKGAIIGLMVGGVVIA
Method: Aggregation modulation by toxic Aβ aggregates were assessed and were quantified by dot blot assay. Aβ peptide (10 μM) was dissolved in phosphate buffered saline (PBS, 10 mM, pH 7.4), incubated alone and with NMIs (20 μM) at 37° C. for 48 h. For concentration dependent inhibition, 10 μM Aβ peptide was incubated with 1, 2, 5, 10 and 20 μM of NMIs and incubated. Samples for oligomer inhibition studies were prepared by incubating Aβ alone and with NMIs at 4° C. for 24 and subjected to dot blot analysis. For dissolution studies, Aβ peptide alone was incubated in PBS for 48 h to prepare fibrils and then incubated with NMIs further for 48 h. For dot blot experiment, 5 μL of sample was blotted on activated PVDF (polyvinylidene fluoride) membrane in triplicates and air dried. The membrane was blocked with skimmed milk powder for 1 h at room temperature. The blot paper was washed with tris-buffered saline with 0.01% Tween 20 (TBST) three times for 5 min. Blot paper was treated with fibril specific OC primary antibody (Rabbit, 1:1000 dilution) overnight at 4° C. For oligomers blot A11 anti-oligomer antibody (Rabbit 1:1000) was used. […] Blots were analyzed and quantified by ImageJ software. […] The ability of NMIs (M3) to inhibit the formation of Aβ oligomers was assessed by dot blot assay. […]

Compound | mitochondrial structure (SH-SY5Y cells) | log DMT modulus (cellular stiffness) (C6 microglial cells; Aβ treated ~2.06±0.20 Pa, control ~1.38±0.19 Pa) | height of microglial cells (C6 microglial cells; activated ~5.13±0.29, control ~2.03±0.18) | adhesive force (C6 microglial cells; activated ~5.30±0.24, control 3.21±0.23) | Iba1 level compared to Aβ treated cells (C6 microglial cells; LPS 500 ng/mL, 18 h) | Iba1 localisation with actin (C6 microglial cells; LPS 500 ng/mL, 18 h) | actin redistribution to the periphery of Aβ treated microglial cells (C6 microglial cells; LPS 500 ng/mL, 18 h) | oligomer inhibition (Aβ oligomers)
O=C1c2cccc3c(N(Cc4ccccn4)Cc4ccccn4)ccc(c23)C(=O)N1CCc1ccc(O)c(O)c1 [M3, 6-(bis(pyridin-2-ylmethyl)amino)-2-(3,4-dihydroxyphenethyl)-1H-benzo[de]isoquinoline-1,3(2H)-dione] | protected normal long tubular structures | ~1.32±0.15 | ~3.03 µm | ~3.57±0.25 nN | reduced significantly | reduced the Iba1 localisation with actin | reduced | 
CN(C)c1ccc2c3c(cccc13)C(=O)N(CCc1ccc(O)c(O)c1)C2=O [M1, 2-(3,4-dihydroxyphenethyl)-6-(dimethylamino)-1H-benzo[de]isoquinoline-1,3(2H)-dione] |  |  |  |  |  |  |  | 33%
